In publication PMC4033217, “Characterization of Novel PI3Kδ Inhibitors as Potential Therapeutics for SLE and Lupus Nephritis in Pre-Clinical Studies” (Frontiers in Immunology, 2014):
Like-named read-outs stand apart in the source and are kept apart here.

Key:
[1] = biological target: PI3K γ (Homo sapiens, UniProt P48736); assay: Scintillation proximity assay, PI3Kγ enzymatic activity; assay type: biochemical; conditions: 65 μM ATP, read-out: Enzymatic potency IC50
[2] = Unbound plasma protein binding, mouse; assay type: in vitro ADME; conditions: unbound fraction
Text: (§1) 36 CLint: intrinsic clearance in liver microsomes. h/m: human/mouse. Papp: apparent permeability. uPPB:
(§2) 37 unbound plasma protein binding. […]

[3] = Human PK prediction based on allometric scaling; conditions: data not shown
[4] = tested on: pAkt in Ramos B cells; assay: BCR-crosslinking (anti-IgM)-induced Akt phosphorylation in Ramos cells; assay type: cell-based; conditions: Homo sapiens, 0.25 h, anti-IgM 15 min
[5] = tested on: pAkt; assay: Imax PK/PD model of BCR activation-induced pAkt response; conditions: mouse, estimated in vivo PD parameter (pAkt)
Text: An Imax PK/PD model describing BCR activation-induced pAkt response was established using data from in vitro and ex vivo mouse whole blood assays.

[6] = Caco-2 permeability; assay type: in vitro ADME; conditions: human
Text: as §1, §2

[7] = tested on: CD4+CD45RA− memory T-cells; assay: T-cell cytokine release assay (anti-CD3/anti-CD28); assay type: cell-based, human; conditions: for IC50: Homo sapiens, T-cell, 120 h, memory T-cells, anti-CD3 and anti-CD28, 5 days
Method: Purified T-cells were incubated with PI3Kδ inhibitors for 1 h, and stimulated with 5 μg/ml anti-CD3 and 2 μg/ml anti-CD28 for 5 days. Cytokines in the supernatants were measured with Luminex® xMAP® multiplex bead assay kits (Bio-Rad, Hercules, CA, USA).

[8] = biological target: PI3K β (Homo sapiens, UniProt P42338); assay: Scintillation proximity assay, PI3Kβ enzymatic activity; assay type: biochemical; conditions: 65 μM ATP, read-out: Enzymatic potency IC50
Chain of PI3K β (P42338 whole entry): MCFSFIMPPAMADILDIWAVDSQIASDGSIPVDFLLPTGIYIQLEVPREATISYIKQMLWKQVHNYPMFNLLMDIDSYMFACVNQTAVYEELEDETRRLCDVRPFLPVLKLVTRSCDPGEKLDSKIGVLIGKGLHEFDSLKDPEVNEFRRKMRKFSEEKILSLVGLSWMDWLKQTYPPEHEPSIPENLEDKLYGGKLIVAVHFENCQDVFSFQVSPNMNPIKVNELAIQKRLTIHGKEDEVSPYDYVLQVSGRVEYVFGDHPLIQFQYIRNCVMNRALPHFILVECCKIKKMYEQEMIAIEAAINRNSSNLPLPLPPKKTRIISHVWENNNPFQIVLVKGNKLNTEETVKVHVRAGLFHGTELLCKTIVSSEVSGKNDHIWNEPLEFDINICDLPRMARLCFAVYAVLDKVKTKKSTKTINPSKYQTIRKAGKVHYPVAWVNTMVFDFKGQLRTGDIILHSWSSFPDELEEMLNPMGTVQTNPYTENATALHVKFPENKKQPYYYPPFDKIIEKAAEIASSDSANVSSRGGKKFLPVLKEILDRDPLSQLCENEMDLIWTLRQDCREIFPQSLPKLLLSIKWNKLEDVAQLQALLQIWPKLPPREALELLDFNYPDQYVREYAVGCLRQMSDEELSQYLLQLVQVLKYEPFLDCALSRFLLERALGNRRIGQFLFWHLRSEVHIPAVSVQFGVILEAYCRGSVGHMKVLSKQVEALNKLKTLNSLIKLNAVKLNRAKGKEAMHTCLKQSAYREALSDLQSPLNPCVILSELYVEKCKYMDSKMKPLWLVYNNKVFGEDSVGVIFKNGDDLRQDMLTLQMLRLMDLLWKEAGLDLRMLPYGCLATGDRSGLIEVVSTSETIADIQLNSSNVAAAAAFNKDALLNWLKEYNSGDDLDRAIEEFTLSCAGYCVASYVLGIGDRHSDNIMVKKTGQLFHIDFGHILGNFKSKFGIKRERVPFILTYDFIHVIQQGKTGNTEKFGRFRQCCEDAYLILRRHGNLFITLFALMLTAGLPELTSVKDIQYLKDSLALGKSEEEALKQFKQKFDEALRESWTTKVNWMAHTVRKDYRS
Chain of PI3K β (P27986 whole entry partner): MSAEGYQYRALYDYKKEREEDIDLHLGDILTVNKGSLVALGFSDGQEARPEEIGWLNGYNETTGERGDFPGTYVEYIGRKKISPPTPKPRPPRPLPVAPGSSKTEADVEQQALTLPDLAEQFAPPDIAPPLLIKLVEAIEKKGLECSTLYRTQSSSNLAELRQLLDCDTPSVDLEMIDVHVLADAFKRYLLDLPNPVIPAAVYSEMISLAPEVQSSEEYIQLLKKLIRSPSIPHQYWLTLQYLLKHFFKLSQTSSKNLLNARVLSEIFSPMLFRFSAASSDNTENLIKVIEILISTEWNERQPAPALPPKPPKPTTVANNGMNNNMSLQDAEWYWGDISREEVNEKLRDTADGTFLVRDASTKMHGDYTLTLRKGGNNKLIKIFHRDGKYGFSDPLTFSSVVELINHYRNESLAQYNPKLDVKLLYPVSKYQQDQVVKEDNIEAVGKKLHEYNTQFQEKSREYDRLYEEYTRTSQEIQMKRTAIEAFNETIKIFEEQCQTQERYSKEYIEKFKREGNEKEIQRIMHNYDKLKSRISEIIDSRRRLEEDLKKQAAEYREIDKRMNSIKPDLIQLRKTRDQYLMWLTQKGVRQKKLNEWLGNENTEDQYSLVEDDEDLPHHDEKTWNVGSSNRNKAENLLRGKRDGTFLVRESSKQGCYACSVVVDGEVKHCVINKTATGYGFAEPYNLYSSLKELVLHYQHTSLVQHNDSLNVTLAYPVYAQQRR

[9] = biological target: PI3K α (Homo sapiens, UniProt P42336); assay: Scintillation proximity assay, PI3Kα enzymatic activity; assay type: biochemical; conditions: 65 μM ATP, read-out: Enzymatic potency IC50
Chain of PI3K α (P42336 whole entry): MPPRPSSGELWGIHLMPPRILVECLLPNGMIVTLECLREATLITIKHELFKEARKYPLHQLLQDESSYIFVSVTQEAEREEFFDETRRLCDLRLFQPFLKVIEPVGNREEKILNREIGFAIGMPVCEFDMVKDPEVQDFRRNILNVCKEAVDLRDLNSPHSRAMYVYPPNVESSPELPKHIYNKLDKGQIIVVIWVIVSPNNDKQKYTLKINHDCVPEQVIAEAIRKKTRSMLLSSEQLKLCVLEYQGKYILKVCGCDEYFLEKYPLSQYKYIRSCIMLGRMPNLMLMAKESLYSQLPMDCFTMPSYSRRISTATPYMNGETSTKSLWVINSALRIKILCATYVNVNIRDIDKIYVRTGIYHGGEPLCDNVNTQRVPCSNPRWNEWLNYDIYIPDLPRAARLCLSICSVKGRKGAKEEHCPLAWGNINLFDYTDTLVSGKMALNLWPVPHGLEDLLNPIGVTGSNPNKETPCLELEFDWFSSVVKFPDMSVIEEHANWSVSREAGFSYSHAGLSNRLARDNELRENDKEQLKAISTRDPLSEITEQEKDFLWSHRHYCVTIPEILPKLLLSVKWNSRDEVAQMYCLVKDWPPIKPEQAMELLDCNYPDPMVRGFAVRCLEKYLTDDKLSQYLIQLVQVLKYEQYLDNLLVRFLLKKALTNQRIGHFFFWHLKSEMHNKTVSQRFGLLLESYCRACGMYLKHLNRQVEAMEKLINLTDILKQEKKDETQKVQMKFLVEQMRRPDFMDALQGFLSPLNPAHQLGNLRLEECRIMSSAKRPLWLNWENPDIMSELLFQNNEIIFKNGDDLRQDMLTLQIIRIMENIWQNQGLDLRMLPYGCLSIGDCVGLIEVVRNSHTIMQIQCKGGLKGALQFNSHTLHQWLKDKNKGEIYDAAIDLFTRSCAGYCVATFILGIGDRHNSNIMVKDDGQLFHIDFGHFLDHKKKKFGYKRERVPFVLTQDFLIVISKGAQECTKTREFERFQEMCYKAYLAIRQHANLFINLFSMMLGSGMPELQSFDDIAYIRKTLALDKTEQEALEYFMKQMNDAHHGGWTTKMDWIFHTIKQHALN
Chain of PI3K α (P27986 whole entry partner): as the sequence (P27986 whole entry partner) above

[10] = tested on: panel of 278 additional kinases; assay: Kinase selectivity profile at 10 µM; assay type: biochemical; conditions: significant inhibition = >50%, ATP at Km
[11] = tested on: CD69 on B220+ B cells, mouse whole blood; assay: Anti-IgD-induced CD69 in mouse whole blood (in vitro); assay type: cell-based; conditions: B-cell
Method: Whole blood withdrawn from naïve C57BL/6N mice (Charles River Laboratories, L’Arbresle, France) were incubated with PI3Kδ inhibitors for 30 min and stimulated with 1/12 goat anti-mouse IgD antiserum (eBioscience, San Diego, CA, USA) for 4 h before staining with anti-B220-PerCP-Cy5.5 and anti-CD69-PE (all BD Biosciences Pharmingen, San Diego, CA, USA) for 30 min at room temperature. After red blood cells lysis, B220^+IgD^+ cells were gated for CD69 analysis.

[12] = biological target: PAK3 (Homo sapiens, UniProt O75914); assay: PAK3 kinase inhibition; assay type: biochemical
Chain of PAK3 (O75914 whole entry, species assumed): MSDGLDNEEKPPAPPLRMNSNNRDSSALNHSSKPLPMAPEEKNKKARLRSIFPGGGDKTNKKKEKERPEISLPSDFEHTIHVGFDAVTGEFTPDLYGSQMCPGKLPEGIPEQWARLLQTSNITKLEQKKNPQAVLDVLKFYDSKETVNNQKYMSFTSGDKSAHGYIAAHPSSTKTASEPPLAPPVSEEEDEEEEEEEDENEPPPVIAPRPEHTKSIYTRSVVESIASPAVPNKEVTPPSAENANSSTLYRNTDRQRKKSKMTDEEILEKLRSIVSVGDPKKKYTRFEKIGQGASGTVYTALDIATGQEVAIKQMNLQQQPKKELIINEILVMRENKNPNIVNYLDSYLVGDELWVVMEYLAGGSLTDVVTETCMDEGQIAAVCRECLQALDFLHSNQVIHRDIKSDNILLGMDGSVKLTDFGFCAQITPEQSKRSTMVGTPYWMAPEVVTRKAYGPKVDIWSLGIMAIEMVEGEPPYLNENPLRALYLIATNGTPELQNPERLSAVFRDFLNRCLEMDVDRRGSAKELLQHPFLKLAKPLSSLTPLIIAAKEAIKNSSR

[13] = Intrinsic clearance in human liver microsomes; assay type: in vitro ADME; conditions: read-out: In vitro Clint
Text: as §1, §2

[14] = tested on: pAkt in B220+ B cells, mouse whole blood; assay: Anti-IgD-induced pAkt in mouse whole blood (in vitro); assay type: cell-based; conditions: for IC50: B-cell, mouse whole blood in vitro, anti-IgD
Method: Whole blood withdrawn from C57BL/6N mice (Charles River Laboratories, L’Arbresle, France) was incubated with PI3Kδ inhibitors for 30 min and stimulated with goat anti-mouse IgD antiserum (eBioscience, San Diego, CA, USA) for 7 min at 37°C. […] Cells were stained with rabbit anti-pAkt (Ser473) for 1 h followed by anti-IgD-FITC, anti-B220-PerCP-Cy5.5 (all BD Biosciences Pharmingen, San Diego, CA, USA), and donkey anti-rabbit IgG-Alexa647 (Invitrogen, Carlsbad, CA, USA) for 30 min at room temperature. B220^+IgD^+ cells were gated for pAkt analysis.

Chain of PI3K γ (P48736 whole entry): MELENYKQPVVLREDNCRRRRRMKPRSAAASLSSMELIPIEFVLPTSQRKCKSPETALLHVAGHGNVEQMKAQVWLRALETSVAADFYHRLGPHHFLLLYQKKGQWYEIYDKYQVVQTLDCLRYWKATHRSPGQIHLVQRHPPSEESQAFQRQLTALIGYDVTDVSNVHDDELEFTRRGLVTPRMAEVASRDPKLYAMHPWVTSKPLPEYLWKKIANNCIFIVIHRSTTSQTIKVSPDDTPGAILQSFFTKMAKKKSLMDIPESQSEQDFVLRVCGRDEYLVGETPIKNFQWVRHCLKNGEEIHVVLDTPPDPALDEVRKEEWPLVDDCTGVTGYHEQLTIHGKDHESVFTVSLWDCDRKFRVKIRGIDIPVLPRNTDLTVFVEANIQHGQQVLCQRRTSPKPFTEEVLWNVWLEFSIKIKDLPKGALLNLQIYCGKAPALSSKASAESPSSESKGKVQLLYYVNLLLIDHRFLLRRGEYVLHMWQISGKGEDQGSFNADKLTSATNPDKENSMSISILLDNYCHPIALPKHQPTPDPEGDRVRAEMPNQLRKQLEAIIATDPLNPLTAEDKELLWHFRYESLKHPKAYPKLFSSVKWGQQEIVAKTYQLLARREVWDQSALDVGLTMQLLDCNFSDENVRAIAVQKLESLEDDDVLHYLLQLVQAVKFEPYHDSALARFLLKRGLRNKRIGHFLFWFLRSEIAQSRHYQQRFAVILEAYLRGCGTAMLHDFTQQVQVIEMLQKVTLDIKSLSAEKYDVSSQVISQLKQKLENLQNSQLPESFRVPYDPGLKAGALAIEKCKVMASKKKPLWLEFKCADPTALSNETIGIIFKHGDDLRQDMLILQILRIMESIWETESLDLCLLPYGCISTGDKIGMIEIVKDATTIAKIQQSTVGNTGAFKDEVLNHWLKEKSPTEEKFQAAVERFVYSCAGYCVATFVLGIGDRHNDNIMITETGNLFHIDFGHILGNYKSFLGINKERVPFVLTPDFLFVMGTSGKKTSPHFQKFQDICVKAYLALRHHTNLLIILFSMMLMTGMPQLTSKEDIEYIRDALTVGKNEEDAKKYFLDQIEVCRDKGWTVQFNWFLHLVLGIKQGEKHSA

IC50 [1]: > 20000 nM | uPPB % [2]: 65% | Predicted human half-life / dosing frequency [3]: predicted to require twice daily dosing | IC50 [4]: 57 nM | IC50 [5]: 47 nM | Papp [6]: 2.4 ×10⁻⁶ cm/s | efflux ratio [6]: 1.6 | IC50 ([7]; read-out: IC50 IL-6): 23 nM | IC50 ([7]; read-out: IC50 IL-10): 18 nM | IC50 ([7]; read-out: IC50 IL-17): 16 nM | IC50 ([7]; read-out: IC50 TNF-α): 57 nM | IC50 [8]: 2450 nM | IC50 [9]: 7650 nM | Inhibition of kinases in the panel [10]: impaired Hck and PAK3 activity | IC50 ([11]; average, read-out: average IC50 for CD69): 16 nM | IC50 ([11]; representative experiment of Figure 5B, read-out: IC50 CD69): 18 nM | IC50 [12]: > 10000 nM | microsomal CLint [13]: 21 µL/min/mg | IC50 ([14]; average, read-out: average IC50 for pAkt): 35 nM | IC50 ([14]; representative experiment of Figure 5A, read-out: IC50 pAkt): 59 nM
Structure (SMILES): O=C(c1nn([C@@H]2CCCN(CCN3CCOCC3)C2)c2c1CS(=O)(=O)c1cc(F)ccc1-2)N1CCOCC1 [MSC2364588, (R)-7-fluoro-3-(morpholin-4-ylcarbonyl)-1-[1-(2-morpholin-4-ylethyl)piperidin-3-yl]-1,4-dihydrothiochro-meno[4,3-c]pyrazole 5,5-dioxide]
Potency relative to MSC2360844 ([7]; T-cell cytokines): 10 times | Potency relative to MSC2360844 ([14]; mouse whole blood in vitro assay): approximately 10 folds
